The assay addresses T1, full-length AimR (wild-type) (Bacillus phage SPbeta, UniProt O64094).
T1 construct: 6xHis (C); made in house; host or cells: E. coli BL21 (DE3)
As to the kind of experiment: Isothermal titration calorimetry (ITC), AimP vs wild-type AimR. Also noted: species or system Bacillus subtilis SPbeta phage. The settings on record: wild-type full-length AimR 10–20 μM in cell, AimP 200–500 μM in syringe; 20 mM Tris-HCl (pH 8.0), 150 mM NaCl; 25°C; MicroCal iTC200; read-out: Kd (dissociation constant) for AimP binding. How it is done: DNA sequence encoding full-length AimR from Bacillus subtilis SPbeta phage was cloned into the pET-28a vector with a C-terminal 6×His-tag. The construct was introduced into E.coli BL21 (DE3) cells. The recombinant strains were cultured in LB medium at 37°C until the OD600 reached 0.8. After 16 h of induction with 0.5 mM IPTG at 16°C, the cells were harvested by centrifugation at 5, 000 rpm for 30 min at 4°C. The pelleted cells were then resuspended in the lysis buffer containing 50 mM Tris-HCl (pH 8.0) and 150 mM NaCl, and subsequently lysed by ultrasonication. The lysate was then centrifuged at 17,000 rpm for 30 min at 4°C. Protein purification was carried out following the routine procedure (Jiang et al., 2017). Briefly, the supernatant was loaded onto a Ni-NTA column (Qiagen). The target protein was eluted with 50 mM Tris-HCl (pH 8.0) containing 150 mM NaCl and 250 mM imidazole. The fractions containing purified protein were pooled, concentrated to 0.5 ml and loaded onto a Superdex200 increase column (GE Healthcare) equilibrated with buffer containing 20 mM Tris-HCl (pH 8.0) and 150 mM NaCl. All the AimR mutant proteins were purified following the same protocol.
ITC experiments were performed using a MicroCal iTC200 instrument (Malvern Instruments Ltd.). […] The resulting isotherms were recorded and fitted with Origin software (OriginLab).
A general note: In ITC the heat of successive injections is recorded.

pKd: −log10 of the molar value. Ends that are not written are not given here.

T1 sequence (O64094 whole entry): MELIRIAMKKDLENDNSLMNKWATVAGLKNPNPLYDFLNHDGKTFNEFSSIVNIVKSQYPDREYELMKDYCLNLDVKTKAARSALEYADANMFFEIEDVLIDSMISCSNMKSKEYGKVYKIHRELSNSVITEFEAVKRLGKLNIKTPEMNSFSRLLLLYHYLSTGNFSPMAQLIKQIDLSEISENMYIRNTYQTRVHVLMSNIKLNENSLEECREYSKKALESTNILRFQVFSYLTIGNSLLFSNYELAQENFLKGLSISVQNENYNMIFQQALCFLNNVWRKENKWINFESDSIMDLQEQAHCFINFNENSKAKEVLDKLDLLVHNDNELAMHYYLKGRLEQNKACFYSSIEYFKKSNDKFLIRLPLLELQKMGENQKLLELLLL

One may read the pKd as the negative decadic logarithm of the Kd, by convention in mol/L. With GMPRGA [AimP], the pKd is 7.40.

The values are drawn from paper PMC6340889, “Structural basis of AimP signaling molecule recognition by AimR in Spbeta group of bacteriophages” (Protein & Cell, 2018).
